The text below walks through data of PubChem BioAssay (NCI).

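Cells were grown in 96-well plates and exposed to each compound for 48 hours at five concentrations; endpoints were interpolated linearly between bracketing concentrations, or set to the highest concentration if not reached. TGI marks complete inhibition of growth.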

Some test systems named below: EKVX NSCLC; UACC-62 melanoma; SNB-19 CNS; SK-OV-3 ovarian; OVCAR-8 ovarian; UACC-257 melanoma; CCRF-CEM leukemia; SK-MEL-28 melanoma; HOP-62 NSCLC; HCC-2998 colon; T-47D breast.
Assay in all cases: DTP human tumour cell line panel, 48 h

Consider `COc1cc(CC2c3cc(OC)c(OC)cc3CCN2C)c(Oc2cc3c(cc2OC)-c2c(OC)c(OC)c(OC)c4c2C(C3)N(C)CC4)cc1OC` (stereo not drawn), for which the TGI (commonly the concentration giving total growth inhibition) in the experiment with EKVX NSCLC was 31.1 µM; in the experiment with UACC-62 melanoma, 29.1 µM; with SNB-19 CNS, 43.3 µM; in the experiment on SK-OV-3 ovarian it was 35 µM; with OVCAR-8 ovarian, 32 µM; with UACC-257 melanoma, 13.6 µM. The TGI was more than 50.9 µM in the experiment with CCRF-CEM leukemia, 22.8 µM in the experiment on SK-MEL-28 melanoma, 31.3 µM in the experiment on HOP-62 NSCLC and 13.7 µM in the experiment on HCC-2998 colon.
With `CC(C)(C)/C(O)=C\c1nc2cc(C(F)(F)F)ccc2[nH]c1=O`, the TGI in the experiment on EKVX NSCLC, with UACC-62 melanoma, in the experiment with T-47D breast, in the experiment on SNB-19 CNS, in the experiment on SK-OV-3 ovarian and with OVCAR-8 ovarian was more than 100 µM each time. The TGI with UACC-257 melanoma is more than 100 µM; in the experiment on CCRF-CEM leukemia, 81.2 µM; in the experiment with SK-MEL-28 melanoma, more than 100 µM; in the experiment on HOP-62 NSCLC, more than 100 µM.
For `CCOC(=O)c1c(SCCO)n(-c2ccccc2)c(=S)n(-c2ccccc2)c1=O`, the TGI with EKVX NSCLC, with UACC-62 melanoma, in the experiment with T-47D breast, with SNB-19 CNS, in the experiment with SK-OV-3 ovarian and with OVCAR-8 ovarian was more than 100 µM throughout. The TGI in the experiment on UACC-257 melanoma, in the experiment with CCRF-CEM leukemia, in the experiment with SK-MEL-28 melanoma and in the experiment with HOP-62 NSCLC was more than 100 µM throughout.
Take `Cc1cc(=Nc2ccc3c(c2)c(N)cc(C)[n+]3C)nc(N)n1C`: the TGI in the experiment on EKVX NSCLC, in the experiment with UACC-62 melanoma, with T-47D breast, in the experiment on SNB-19 CNS, in the experiment on SK-OV-3 ovarian and with OVCAR-8 ovarian was more than 100 µM throughout. Further, the TGI in the experiment on UACC-257 melanoma, in the experiment on CCRF-CEM leukemia, in the experiment on SK-MEL-28 melanoma and in the experiment on HOP-62 NSCLC was more than 100 µM throughout.
On to `CC(C)[Si]1(C(C)C)OCC2OC(n3ccc(=O)[nH]c3=O)C(O)(CO)C2O[Si](C(C)C)(C(C)C)O1` (stereo not drawn), for which the TGI with EKVX NSCLC amounted to 27.4 µM; in the experiment on UACC-62 melanoma, 29.2 µM; with T-47D breast, 30.2 µM; in the experiment with SNB-19 CNS, 28.9 µM; with SK-OV-3 ovarian it was 30.2 µM; with OVCAR-8 ovarian it was 29.5 µM. Further, the TGI came to 28.7 µM in the experiment with UACC-257 melanoma, 30.7 µM in the experiment on CCRF-CEM leukemia, 36.7 µM in the experiment with SK-MEL-28 melanoma and 33.8 µM in the experiment with HOP-62 NSCLC.
Regarding `CSCCCCCCCCCCOc1ccc(C=C2C(=C(C#N)C#N)c3ccccc3C2=C(C#N)C#N)cc1`, the TGI in the experiment with EKVX NSCLC worked out at 34.5 µM; in the experiment on T-47D breast it was 51.4 µM; in the experiment with SK-OV-3 ovarian, 32.1 µM; with OVCAR-8 ovarian, 39.6 µM; with UACC-257 melanoma, 35.4 µM; in the experiment with CCRF-CEM leukemia it was 12.2 µM. Also, the TGI with SK-MEL-28 melanoma was 29.6 µM; with HOP-62 NSCLC, 32.2 µM.
`CC1(C)CC(=O)c2c(nc3ccc4ccccc4c3c2-c2ccc(NC(=O)CCCCC(=O)Nc3ccc(-c4c5c(nc6ccc7ccccc7c46)CC(C)(C)CC5=O)cc3)cc2)C1`: the TGI in the experiment on EKVX NSCLC, with UACC-62 melanoma, in the experiment on T-47D breast, in the experiment on SNB-19 CNS, in the experiment on SK-OV-3 ovarian and in the experiment with OVCAR-8 ovarian was more than 100 µM throughout. The TGI in the experiment on UACC-257 melanoma, in the experiment with CCRF-CEM leukemia, in the experiment on SK-MEL-28 melanoma and in the experiment on HOP-62 NSCLC was more than 100 µM in each case.
Take `COc1cc2c(c(OC)c1OC)C(=O)CC2N` (stereo not drawn): the TGI in the experiment with EKVX NSCLC, in the experiment with UACC-62 melanoma, in the experiment on SNB-19 CNS, in the experiment on SK-OV-3 ovarian, in the experiment with OVCAR-8 ovarian and with UACC-257 melanoma was more than 100 µM throughout. The TGI in the experiment on CCRF-CEM leukemia, with SK-MEL-28 melanoma and with HCC-2998 colon was more than 100 µM each time.
Turning to `CCN(CC)CCNc1ccc(C)c2sc3ccc(O)cc3c(=O)c12`, the TGI with EKVX NSCLC was 25.9 µM; in the experiment with UACC-62 melanoma it was 2.21 µM; in the experiment on SNB-19 CNS, 15.6 µM; in the experiment with SK-OV-3 ovarian, 5.59 µM; in the experiment with OVCAR-8 ovarian it was 3.2 µM; in the experiment on UACC-257 melanoma it was 2.99 µM. Also, the TGI was 1.06 µM with CCRF-CEM leukemia, 2.96 µM in the experiment on SK-MEL-28 melanoma, 1.66 µM in the experiment on HOP-62 NSCLC and 2.66 µM in the experiment with HCC-2998 colon.
Consider `CN1OC(=O)N(C)C1c1ccccc1` (stereo not drawn), for which the TGI with EKVX NSCLC, in the experiment on UACC-62 melanoma, with SNB-19 CNS, with SK-OV-3 ovarian, in the experiment on OVCAR-8 ovarian and in the experiment on UACC-257 melanoma was more than 100 µM throughout. In addition, the TGI with CCRF-CEM leukemia, in the experiment on SK-MEL-28 melanoma, in the experiment with HOP-62 NSCLC and in the experiment on HCC-2998 colon was more than 100 µM in each case.
Take `C=C1C(=O)OC2/C=C(\C)C(O)/C=C\C(C)(O)CC(OC(=O)/C(C)=C/C)C12` (stereo not drawn): the TGI is 77.9 µM with EKVX NSCLC; 32.6 µM in the experiment on UACC-62 melanoma; 98.8 µM in the experiment with SNB-19 CNS; more than 100 µM in the experiment on SK-OV-3 ovarian; 50.5 µM in the experiment on OVCAR-8 ovarian; more than 77.1 µM with UACC-257 melanoma. Further, the TGI in the experiment with CCRF-CEM leukemia was more than 61.7 µM; with SK-MEL-28 melanoma it was 35.4 µM; with HOP-62 NSCLC, more than 100 µM; in the experiment on HCC-2998 colon it was more than 100 µM.
Consider `Nc1ccn(C2OC(COP(=O)(O)Oc3ccccc3)C(O)C2O)c(=O)n1` (stereo not drawn), for which the TGI in the experiment with EKVX NSCLC, in the experiment on UACC-62 melanoma, in the experiment on SNB-19 CNS, in the experiment on SK-OV-3 ovarian, with OVCAR-8 ovarian and in the experiment with UACC-257 melanoma was more than 100 µM each time. Further, the TGI with CCRF-CEM leukemia, in the experiment with SK-MEL-28 melanoma and in the experiment with HCC-2998 colon was more than 100 µM in each case.
On to `Cc1n[nH]c(=O)n1N=C(c1ccccc1)c1ccccc1`, for which the TGI in the experiment on EKVX NSCLC, in the experiment on UACC-62 melanoma, in the experiment with SNB-19 CNS, in the experiment on OVCAR-8 ovarian, with UACC-257 melanoma and with CCRF-CEM leukemia was more than 100 µM in each case. Moreover, the TGI in the experiment on SK-MEL-28 melanoma and in the experiment on HOP-62 NSCLC was more than 100 µM each time.
For the molecule `Cc1nc(-c2nc([N+](=O)[O-])c([N+](=O)[O-])[nH]2)cs1`, the TGI in the experiment on EKVX NSCLC, in the experiment on UACC-62 melanoma, in the experiment with SNB-19 CNS, with SK-OV-3 ovarian, in the experiment with UACC-257 melanoma and in the experiment on CCRF-CEM leukemia was more than 100 µM throughout. The TGI in the experiment on SK-MEL-28 melanoma, with HOP-62 NSCLC and in the experiment with HCC-2998 colon was more than 100 µM throughout.
